This note sets out measurements from paper PMC10149367, “The ferroptosis inducing compounds RSL3 and ML162 are not direct inhibitors of GPX4 but of TXNRD1” (Redox Biology, 2023).

Data set [1] deals with T1, glutathione reductase (GR) (Homo sapiens, UniProt P00390).
T1 construct: made in house
T1 sequence (P00390 44-522): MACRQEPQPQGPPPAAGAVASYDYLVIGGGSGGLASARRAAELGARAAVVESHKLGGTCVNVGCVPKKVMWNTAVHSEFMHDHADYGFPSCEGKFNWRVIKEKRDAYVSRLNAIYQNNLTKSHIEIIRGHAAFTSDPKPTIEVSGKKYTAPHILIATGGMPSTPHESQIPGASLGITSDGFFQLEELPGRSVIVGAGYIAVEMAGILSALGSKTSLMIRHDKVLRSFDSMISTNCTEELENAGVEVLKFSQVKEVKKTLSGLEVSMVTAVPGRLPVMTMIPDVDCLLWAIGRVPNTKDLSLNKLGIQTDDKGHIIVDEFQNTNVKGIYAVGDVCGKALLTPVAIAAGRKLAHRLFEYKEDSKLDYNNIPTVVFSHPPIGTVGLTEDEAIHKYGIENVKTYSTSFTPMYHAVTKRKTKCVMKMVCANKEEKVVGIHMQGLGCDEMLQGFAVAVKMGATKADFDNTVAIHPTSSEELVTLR
Briefly: GR counter assay. It counts as biochemical. Particulars: Extended Data Fig. 2A right panel. As to the method: Recombinant human proteins—Recombinant human selenoprotein GPX and TXNRD isoenzymes as well as recombinant human GR were cloned, expressed, and purified as described previously [[26], [27], [28]].
GR counter assay was run by incubating 198 μL of GR and BSA in TES buffer with 2 μL compound for 30 min before dispensing 50 μL GSSG and NADPH in TES for final concentrations of 100 nM GR, 1 mM GSSG, 0.4 mM NADPH, 0.01% BSA. Absorbance at 340 was measured as above.

A further data set concerns A549 cells. Briefly: Cytotoxicity assay, A549 cells. It counts as cell-based, human. Particulars: for Cell viability compared to DMSO controls: 5 μM. The method, then: (§1) Cell culture—H1975 and A549 cells were cultured in RPMI-1640 medium (HyClone) with Earle's salts supplemented and penicillin/streptomycin (100 μg/ml), while HT1080 cells were cultured in MEM medium for Fig. 2 experiments. For all other cellular experiments, A549 cells were cultured in DMEM 4.5 g/L glucose medium (Gibco), and H1975 cells in RPMI-1640 ATCC Modification (Gibco). Cell cultures were maintained at 37 °C in 5% CO2 in a medium containing 10% fetal bovine serum (FBS) (GE Healthcare, A15-102 for Fig. 2 experiments and Sigma, F7524 for all others). Experiments were performed with or without supplementation with 100 nM sodium selenite as described.
(§2) Cytotoxicity assays— Cells were seeded in a 96-well plate at the density of 3 × 10^3 per well and allowed to adhere overnight. After which, cells were treated with various concentrations of compound for the indicated times, whereupon cell viability was determined using Cell Quanti-Blue™ Cell Viability Assay Kits (Nordic Diagnostica, CQBL-10K). Briefly, QUANTI-Blue Reagent (10 μL) was added to each well, incubated at 37 °C in 5% CO2 for 3 h, and then the plates were measured at 540nm/600 nm (Ex/Em) using the Tecan Microplate Reader (Morrisville NC, USA).

In another data set the test system is H1975 cells. As to the kind of experiment: Cytotoxicity assay, H1975 cells. In kind it is cell-based, human. As to the method:
as §1, §2

In a further data set the test system is HT1080 cells. Briefly: Cytotoxicity assay, HT1080 cells. In kind it is cell-based. Particulars: HT1080, 24 h. The method, then:
as §1, §2

Where [2] appears, read: 24 h, media not supplemented with selenium.
Setting [3] is: A549, 24 h, no selenium supplementation.
Where [4] appears, read: A549 in absence of selenium supplementation, 24 h.

For orientation: IC50 means the concentration that gives 50% inhibition.

With `COC(=O)c1ccc([C@@H]2c3[nH]c4ccccc4c3C[C@@H](C(=O)OC)N2C(=O)CCl)cc1` [RSL3, (1S,3R)RSL3], the “Inhibition of GR” value in data set [1] was “did not inhibit GPX1 or GR”. Besides, the IC50 in the data set on A549 cells (setting [2]) is roughly 500 nM; with H1975 cells (setting [2]), 150 nM. The “Suppression of cell death by MitoTEMPO” value with A549 cells (setting [3]) is given as “but not by the mitochondrial antioxidant MitoTEMPO”. For the same compound, the “Suppression of cell death by addition of ferrostatin-1” value in the data set on A549 cells (setting [3]) is on record as “at least 20 fold”. For the same compound, the “Cell viability compared to DMSO controls” value in the data set with A549 cells (A549, non-selenium supplemented, 24 h) is reported as 10%; with A549 cells (A549, supplemented with 100 nM sodium selenite, 24 h) it was “approximately 78%”. The “Protection by caspase inhibitor z-VAD-fmk” value with A549 cells (setting [4]) is on record as “did not protect these cells from RSL3”. Moreover, the Protection by necrostatin entry with A549 cells (setting [4]) is “partially protected by nectrostatin”. The “Block of cell death by antioxidants and iron chelators” value in the data set with A549 cells (A549 without selenium supplementation, 24 h) is “blocked by ferrostatin, NDGA (another strong antioxidant), or the iron chelators DFO and DPD50”. Also, the “Rescue from cytotoxicity by selenium supplementation” value in the data set with H1975 cells (H1975, 24 h) is given as “partial rescue”; with HT1080 cells, “no rescue”.
